{"source": "paper PMC3883290", "about": "“Functional characterization in Xenopus oocytes of Na^+ transport systems from durum wheat reveals diversity among two HKT1;4 transporters” (Journal of Experimental Botany, 2013)", "target": "T1, TdHKT1;4-2 (Triticum turgidum, UniProt U5YMY4)", "T1 construct": "full-length coding region (ORF 1686 bp, 562 residues as printed) in pGEMXho, cRNA expressed in Xenopus laevis oocytes", "T1 sequence (U5YMY4 1-561)": "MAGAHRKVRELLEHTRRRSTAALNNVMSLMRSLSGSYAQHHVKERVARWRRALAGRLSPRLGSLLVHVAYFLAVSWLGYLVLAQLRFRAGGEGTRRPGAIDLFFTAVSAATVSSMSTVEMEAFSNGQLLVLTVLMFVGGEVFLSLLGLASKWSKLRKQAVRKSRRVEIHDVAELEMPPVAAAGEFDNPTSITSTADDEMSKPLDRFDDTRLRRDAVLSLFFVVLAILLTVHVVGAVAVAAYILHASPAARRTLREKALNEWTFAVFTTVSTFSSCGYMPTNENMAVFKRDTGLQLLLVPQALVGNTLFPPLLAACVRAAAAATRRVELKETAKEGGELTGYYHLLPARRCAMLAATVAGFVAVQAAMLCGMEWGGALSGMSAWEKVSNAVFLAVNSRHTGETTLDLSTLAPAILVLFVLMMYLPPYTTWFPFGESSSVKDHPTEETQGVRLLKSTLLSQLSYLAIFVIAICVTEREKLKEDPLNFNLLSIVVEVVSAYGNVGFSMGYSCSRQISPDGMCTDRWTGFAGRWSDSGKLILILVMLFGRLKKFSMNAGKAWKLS", "experiment": "two-electrode voltage clamp, Xenopus oocytes", "type": "cell-based", "conditions": "500 µM quinine; 1 mM external Na+ (glutamate salt); pH 5.5; inward and outward currents", "data": [{"smiles": "C=C[C@H]1CN2CC[C@H]1C[C@H]2[C@H](O)c1ccnc2ccc(OC)cc12", "note": "[quinine]", "values": [{"measurement": "% decrease of currents at 500 μM", "result": "~ 25%"}]}]}
